What was measured:
Test in all cases: relative viability (nuclei count vs DMSO), 5 days (fraction); higher = more cells survive
[1] = compound: CC1CC(=O)N(C2=CN=C(N=C2N1C3CCCC3)NC4=C(C=C(C=C4)C(=O)NC5CCN(CC5)C)OC)C [NPK76-II-72-1] + Cc1nc(NC(=O)N2CCC[C@H]2C(N)=O)sc1-c1ccnc(C(C)(C)C(F)(F)F)c1 [Alpelisib] (partner 2 µM)
Procedure, shortened: (§1)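 Nuclei were stained with Hoechst during a one-step fixation (final 0.05% Triton X-100, 1% formaldehyde, 1 ug/ml Hoechst) carried out 5 days after dosing, then counted on 4× images. The cells, lung cancer lines in 1536-well plates, had been dosed by pin tool the day after seeding with one drug alone or a fixed anchor-drug dose plus five library-drug doses (not always all listed) in √10 steps. Relative viability is the nuclei count in treated wells divided by that in vehicle wells, and each value is the median of duplicate plates.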

BI-2536 + Dasatinib = compound: CC[C@@H]1C(=O)N(C)c2cnc(Nc3ccc(C(=O)NC4CCN(C)CC4)cc3OC)nc2N1C1CCCC1 [BI-2536] + Cc1nc(Nc2ncc(C(=O)Nc3c(C)cccc3Cl)s2)cc(N2CCN(CCO)CC2)n1 [Dasatinib] (partner 0.075 µM)
Procedure, shortened: as §1

[2] = compound: CC1CC(=O)N(C2=CN=C(N=C2N1C3CCCC3)NC4=C(C=C(C=C4)C(=O)NC5CCN(CC5)C)OC)C [NPK76-II-72-1] + Nc1nc2[nH]cc(CCc3ccc(C(=O)N[C@@H](CCC(=O)O)C(=O)O)cc3)c2c(=O)[nH]1 [Pemetrexed] (partner 0.2 µM)
Procedure, shortened: as §1

NPK76-II-72-1 + Olaparib = compound: CC1CC(=O)N(C2=CN=C(N=C2N1C3CCCC3)NC4=C(C=C(C=C4)C(=O)NC5CCN(CC5)C)OC)C [NPK76-II-72-1] + O=C(c1cc(Cc2n[nH]c(=O)c3ccccc23)ccc1F)N1CCN(C(=O)C2CC2)CC1 [Olaparib] (partner 8 µM)
Procedure, shortened: as §1

UMC-11
relative viability ([1]; first compound 0.01 µM): 0.967 | relative viability ([1]; first compound 0.03162 µM): 0.994 | relative viability ([1]; first compound 0.1 µM): 1.02 | relative viability ([1]; first compound 0.3162 µM): 0.835 | relative viability ([1]; first compound 1 µM): 0.978 | relative viability (BI-2536 + Dasatinib; first compound 0.01 µM): 0.432 | relative viability (BI-2536 + Dasatinib; first compound 0.03162 µM): 0.243 | relative viability (BI-2536 + Dasatinib; first compound 0.1 µM): 0.141 | relative viability (BI-2536 + Dasatinib; first compound 0.3162 µM): 0.183 | relative viability (BI-2536 + Dasatinib; first compound 1 µM): 0.158 | relative viability ([2]; first compound 0.01 µM): 0.79 | relative viability ([2]; first compound 0.03162 µM): 0.869 | relative viability ([2]; first compound 0.1 µM): 0.768 | relative viability ([2]; first compound 0.3162 µM): 0.728 | relative viability ([2]; first compound 1 µM): 0.697 | relative viability (NPK76-II-72-1 + Olaparib; first compound 0.01 µM): 0.381 | relative viability (NPK76-II-72-1 + Olaparib; first compound 0.03162 µM): 0.339 | relative viability (NPK76-II-72-1 + Olaparib; first compound 0.1 µM): 0.386 | relative viability (NPK76-II-72-1 + Olaparib; first compound 0.3162 µM): 0.358 | relative viability (NPK76-II-72-1 + Olaparib; first compound 1 µM): 0.403
